Measured values: patent publication US9861615B2, “Methods and pharmaceutical compositions for the treatment of beta-thalassemias” (INSERM (INSTITUT NATIONAL DE LA SANTE ET DE LA RECHERCHE …, priority 2013, dated 2018)

What was measured:
[1] = tested on: HSP70 nuclear localization in beta-thalassemia CD36+ cells; test: HSP70 localization and GATA1 fluorescence in beta-thalassemia CD36+ cells; type: cell-based, human
Description: FIG. 8. CD36+ cells from the same experiment as FIG. […] Percentages of cells containing HSP70 located in the nucleus (black) or in the cytoplasm (grey), gated on the total population of cells analyzed, for the different treatment conditions: KPT 0 (a), KPT 100 nM (b) and KPT 1000 nM (c). d) HSP70 cytoplasm/nuclear ratio for the three treatment conditions e) Mean intensity and standard deviation for GATA1 transcription factor fluorescence.
(§1) Data from FIG. 6 and FIG. 7 are from two different experiments on CD36+ cells from a beta-thalassemia patient. Data from FIG. 8 have been performed with cells from FIG. 7 experiment. Beta-thalassemia erythroblasts were generated in vitro from peripheral blood circulating CD34+ cells from an adult patient with beta-thalassemia major (β^0-TM). This study was performed according to the Helsinky Declaration with approval from the ethics committee of our institution.
Amnis Technology enables to analyse fluorescence localization in a large number of cells beforehand labelled. Here we show the percentage of cells positive for HSP70 labelling in the nucleus, or in the cytoplasm, for conditions KPT 0, 100 nM and 1000 nM (FIG. 8). We can observe that the fraction of cells positive for HSP70 in the nucleus increases in KPT 100 nM and 1000 nM conditions (FIGS. 8b and 8c), compared to KPT 0 (FIG. 8a).

[2] = tested on: CD36+D6 erythroid progenitors from cord blood; test: Cell death of CD36+D6 cells during EPO starvation; type: cell-based, human; settings: EPO starvation during 20 h (80% of cell death without KPT)
Description: FIG. 3B. EPO starvation during 20 h results in 80% of cell death. Treatment of CD36+D6 with KPT at 100 nM, 333 nM during EPO starvation decreases cell death, of 49% and 39% respectively, compared to the absence of KPT treatment.
(§2) Umbilical cord blood units from normal full-term deliveries were obtained, after informed mother's consent, from the Obstetrics Unit of Hôpital Necker-Enfants Malades. CD36+ erythroid progenitors, generated from 7 days IL-6+IL3+SCF− cultured CD34 progenitors isolated from cord blood (Miltenyi CD34 Progenitor Cell Isolation Kit), were cultured in the presence of IL3+SCF+Epo in IMDM (Gibco cell culture) supplemented with 15% BIT 9500 (Stem Cell Technologies).

[3] = tested on: CD36+ erythroid progenitors from cord blood; test: Toxicity of KPT on CD36+ erythroid progenitors, normal EPO; type: cell-based, human; settings: day 6 (D6) of culture; 33 nM, 100 nM, 333 nM and 1000 nM; normal concentrations of EPO; until 20 h of treatment
Description: FIG. 3A. KPT is not toxic for CD36+ erythroid progenitors from cord blood at day 6 (D6) of culture, when diluted at concentrations 33 nM, 100 nM, 333 nM and 1000 nM in CD36+ culture media, with normal concentrations of erythropoietin (EPO), until 20 h of treatment.
as §2

[4] = tested on: HSP70 nuclear retention in CD36+D6 from cord blood; test: HSP70 nuclear retention in cord blood CD36+D6 under EPO starvation; type: cell-based, human; settings: after 20 h of treatment
Description: as §2
5·10^4 cells were spin on slides, acetone fixated, hydrated with cold 1×PBS 1% BSA for 30 minutes, treated with formaldehyde for 15 min (Sigma), then with methanol (Prolabo) for 10 minutes at room temperature. Cells were then permeabilized with 1×PBS 0.2% triton X100 (Sigma) for 10 min at 4° C., washed and incubated in 10% BSA for 30 minutes. They were then sequentially incubated with antibodies diluted in 1×PBS 1% BSA 0.1% tween (Sigma). Nuclei were stained with DAPI and slides were examined with a confocal laser microscope (LSM 700 Carl Zeiss).

[5] = tested on: CD36+ cells derived from circulating CD34+ cells from Beta thalassemia major patient; test: Proliferation, cell death and terminal maturation of beta-thalassemia CD36+ cells; type: cell-based, human
Description: FIG. 6. CD36+ cells, derived from circulating CD34+ cells from Beta thalassemia major patient, were treated or not with KPT molecule (KPT 0=DMSO, KPT 100=100 nM, KPT 1000=1000 nM), and analysed at 24 h, 48 h, 72 h and 96 h of treatment. Day 0 of treatment corresponds to day 5 of CD36+ culture. a) Proliferation of CD36+ cells between 24 h and 96 h, for the different conditions of KPT treatment. b) Cell death of CD36+ cells between 48 h and 96 h, for the different conditions of KPT treatment. c) Flow cytometry analysis of Mean fluorescence intensity (MFI) for Band 3 protein, in CD36+ cells, in the different conditions of KPT treatment. d) MGG count of immature, polychromatophiles and acidophiles+reticulocytes at 96 h of treatment, for the different conditions of KPT treatment and e) corresponding maturation indexes.
FIG. 7: CD36+ cells, derived from circulating CD34+ cells from Beta thalassemia major patient, were treated or not with KPT molecule (KPT 0=DMSO, KPT 100=100 nM, KPT 1000=1000 nM), and analysed at 24 h, 48 h, and 72 h of treatment. Day 0 of treatment corresponds to day 6 of CD36+ culture. a) Proliferation of CD36+ cells between 24 h and 72 h, for the different conditions of KPT treatment. b) Cell death of CD36+ cells between 24 h and 72 h, for the different conditions of KPT treatment. c) Flow cytometry analysis of MFI for Band 3 protein, in CD36+ cells, in the different conditions of KPT treatment. d) Flow cytometry analysis of the number of small, alive, CD36+ cells positive for fœtal haemoglobin in the different conditions of KPT treatment. e) MGG count of immature, polychromatophiles and acidophiles+reticulocytes at 48 h of treatment, for the different conditions KPT 0 and KPT 100 nM and f) corresponding maturation indexes.
as §1
In vitro, maturation is arrested at the polychromatophilic stage in beta-thalassemia erythroid progenitors. To quantify the maturation arrest in beta-thalassemia cells, we use an index of terminal maturation as the number (acidophilic cells+reticulocytes per slide)*100 divided by the number of polychromatophilic cells per slide (Arlet J b et al. Nature oct 2014).

[6] = target: XPO1 (Homo sapiens, UniProt O14980); settings: cited from earlier work
Sequence of XPO1 (O14980 whole entry): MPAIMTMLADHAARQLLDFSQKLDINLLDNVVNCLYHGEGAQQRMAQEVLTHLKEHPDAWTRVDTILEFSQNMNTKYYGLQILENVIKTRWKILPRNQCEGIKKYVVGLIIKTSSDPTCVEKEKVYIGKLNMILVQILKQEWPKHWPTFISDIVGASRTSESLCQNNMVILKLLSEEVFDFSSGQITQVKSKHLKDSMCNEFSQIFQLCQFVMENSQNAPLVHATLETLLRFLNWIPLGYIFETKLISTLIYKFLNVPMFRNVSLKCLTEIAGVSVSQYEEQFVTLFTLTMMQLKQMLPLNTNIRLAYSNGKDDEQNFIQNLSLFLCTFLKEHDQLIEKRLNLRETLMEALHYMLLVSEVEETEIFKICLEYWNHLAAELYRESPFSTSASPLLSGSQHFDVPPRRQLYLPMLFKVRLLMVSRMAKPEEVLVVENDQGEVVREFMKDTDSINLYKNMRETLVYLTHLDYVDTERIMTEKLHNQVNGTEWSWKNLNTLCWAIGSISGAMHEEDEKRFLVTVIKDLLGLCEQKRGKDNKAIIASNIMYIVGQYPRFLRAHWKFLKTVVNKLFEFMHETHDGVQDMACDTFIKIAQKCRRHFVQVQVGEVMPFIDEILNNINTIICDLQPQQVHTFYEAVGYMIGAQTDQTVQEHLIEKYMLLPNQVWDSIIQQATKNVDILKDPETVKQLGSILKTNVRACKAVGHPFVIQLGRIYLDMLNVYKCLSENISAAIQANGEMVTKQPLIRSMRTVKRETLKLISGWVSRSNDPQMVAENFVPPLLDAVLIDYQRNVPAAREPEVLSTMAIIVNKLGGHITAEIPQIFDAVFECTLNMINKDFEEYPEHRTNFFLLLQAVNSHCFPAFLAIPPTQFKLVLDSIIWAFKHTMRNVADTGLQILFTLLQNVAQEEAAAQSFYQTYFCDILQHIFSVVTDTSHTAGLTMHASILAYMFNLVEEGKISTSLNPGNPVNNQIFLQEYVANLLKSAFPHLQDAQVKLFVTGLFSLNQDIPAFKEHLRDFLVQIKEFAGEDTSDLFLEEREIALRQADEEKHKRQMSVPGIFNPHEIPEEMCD

Row | SMILES | HSP70 cyto/nuclear fraction ([1]; KPT 100 nM and 1000 nM compared to KPT 0, 24 h of treatment) | fraction of cells positive for HSP70 in the nucleus ([1]; KPT 100 nM and 1000 nM compared to KPT 0, 24 h of treatment, Amnis) | mean of fluorescence intensity of GATA1 labelling ([1]; KPT treatment conditions of FIG. 8, 24 h of treatment) | HSP70 nuclear localization ([1]; beta-thalassemia CD36+D8 cells, 72 h of treatment at 100 nM, compared to non treated cells) | decrease of cell death compared to the absence of KPT treatment ([2]; KPT 100 nM) | decrease of cell death compared to the absence of KPT treatment ([2]; KPT 333 nM) | toxicity for CD36+ erythroid progenitors [3] | HSP70 nuclear retention [4] | proportion of HbF positive among the population of small alive cells ([5]; 72 hours of treatment with 1000 nM, compared to KPT 0 and KPT 100 nM) | maturation index (acidophilic cells+reticulocytes)*100 / polychromatophilic cells ([5]; KPT 100 nM and 1000 nM compared to control condition KPT 0) | mean fluorescence intensity (MFI) of Band 3 protein labelling ([5]; KPT 100 nM or 1000 nM, at 96 h of treatment (FIG. 6c) and at 72 h of treatment (FIG. 7c), flow cytometry) | cytotoxicity (cell death of CD36+ cells) ([5]; KPT 1000 nM compared to KPT 0 and KPT 100 nM) | proliferation of CD36+ cells ([5]; KPT 1000 nM compared to KPT 0 and KPT 100 nM, only in the experiment with high proliferation rate in control condition) | HSP70 nuclear retention in erythroid precursor cells [6]
1 | FC(F)(F)c1cc(-c2ncn(/C=C\c3nnco3)n2)cc(C(F)(F)F)c1 [KPT] | decrease | increases | increase | induces HSP70 nuclear localization | 49% | 39% | not toxic | induces HSP70 nuclear retention | higher | increases | increases | little cytotoxicity | decreased proliferation | –
2 | CCC(=C/[C@H](C)C/C=C/C(C)=C/[C@@H](C)C(=O)[C@@H](C)[C@H](O)[C@@H](C)C/C(C)=C/C(=O)O)/C=C/[C@@H]1OC(=O)C=C[C@@H]1C [Leptomycin B] | – | – | – | – | – | – | – | – | – | – | – | – | – | induces HSP70 nuclear retention
